“And” between values parts separate entries of the source, which are not always exact repeats. Equal entries are not always repeated. Structures can show the parent of a compound that is named as a salt. Where two headings read alike, the source gives them in different places.
Assays:
[1] = tested on: chemotherapy-induced peripheral neuropathy; conditions: cited from earlier work
[2] = tested on: chemotherapy-induced peripheral neuropathy; conditions: treatment of CIPN; guideline rating; cited from earlier work
[3] = cited from earlier work
[4] = tested on: MM.1S, Jeko-1, HT29, A549, DU145; experiment: In vitro proliferation of 5 cell strains, summary statements (Example 7); assay type: cell-based, Human; conditions: Homo sapiens; range over MM.1S, Jeko-1, HT29, A549, DU145; combined therapy with 30 μM NBP
Description: Different drug concentration gradients were set for each group.
Monotherapy group of NBP: NBP was 2× serially diluted from an initial concentration of 480 μM to 8 concentrations: 480, 240, 120, 60, 30, 15, 7.5, and 3.75 μM, respectively.
The action time of the drug was 72 h.
3 replicate wells were set for each concentration of each drug, and blank wells (only culture medium was present, and no tumor cells were inoculated) and normal wells (a culture medium inoculated with tumor cells, drug concentration was 0) were set.

[5] = tested on: MM.1S xenograft tumor; experiment: Influence of NBP on in vivo anti-tumor efficacy of Bortezomib, MM.1S xenograft (Example 8); set-up: species or system Nu/Nu mice; conditions: for T/C % / TGI % / RTV / TV: day 14; for T/C % / TGI % / RTV / TV / Tumor weight inhibition rate / Tumor weight: Bor 0.5 mg/kg, Pal 70 mg/kg, NBP 60 mg/kg, alone or combined; for RTV / TV / Tumor weight: mean, n=6; for Tumor weight inhibition rate / Tumor weight: end of experiment; for Tumor weight: in g (unit assumed); for body weights of the mice: mouse, in vivo
Description: After in vitro resuscitation and passage of MM.1S cells to a sufficient amount, the cells were counted by a microscope, and diluted with a serum-free medium to adjust the cell count to about 1×10^8 cells/mL. The cell suspension was kept in an ice-water bath. The MM.1S cell suspension was extracted by a sterile syringe and inoculated into the subcutaneous tissue of the forelimb axilla of the Nu/Nu mice. […] Monotherapy group of Palbociclib: intragastric administration at 70 mg/kg, qd (the administration was commenced on day 0); […] The solvent group was given the solvent at the same frequency and with the same administration method as Bortezomib and NBP. The administration period was 16 days, and the administration volume was 10 mL/kg. […] Animals were weighed at set time once per day after the commencement of administration. After animals were grouped, the long diameter and the short diameter of the tumor were measured twice every week. […] V=1⁄2×A×B^2 […] (4) Tumor growth inhibition rate: Note: V: tumor volume; A: tumor length; B: tumor width; RTV: relative tumor volume; TVnd: tumor volume on day n; TV0d: tumor volume on day 0; […]: mean relative tumor volume on day n; TVXn: mean tumor volume of the therapy group on day n; TVX0: mean tumor volume of the therapy group on day 0; TVMn: mean tumor volume of the solvent group on day n; and TVM0: mean tumor volume of the solvent group on day 0 At the end of the experiment, after the animals were euthanized by CO2 asphyxiation, the tumors were excised and weighed.

[6] = PK of Bortezomib and butylphthalide in plasma of MM.1S tumor-bearing mice (Example 8); assay type: in vivo, Nu/Nu mice
Description: Monotherapy group of Bortezomib: administered by intraperitoneal injection at 0.5 mg/kg, biw (on days 0, 3, 7, 10, and 15);
Monotherapy group of NBP: administered by transoral gavage at 60 mg/kg, bid (the administration was commenced on day 0), and the second dose of NBP was administered with an interval from the first dose of ≥4 h;
Monotherapy group of Palbociclib: intragastric administration at 70 mg/kg, qd (the administration was commenced on day 0);
Combined therapy group of NBP/Bortezomib: the administration frequency and dose were the same as the frequency and dose of the monotherapy group of NBP and the monotherapy group of Bortezomib, respectively.
Combined therapy group of Bortezomib/Palbociclib: the administration frequency and dose were the same as the frequency and dose of the monotherapy group of Bortezomib and the monotherapy group of Palbociclib, respectively.
Combined therapy group of NBP/Bortezomib/Palbociclib: the administration frequency and dose were the same as the frequency and dose of the monotherapy group of NBP, the monotherapy group of Bortezomib, and the monotherapy group of Palbociclib, respectively.
Before administration of the last dose of Bortezomib (0 h), and 5 min, 15 min, 30 min, 1 h, 2 h, 4 h, 8 h, 24 h after the administration, blood was sampled (as detailed in Table 8) (except that blood was sampled from the mice in the solvent group only at 0 h), anticoagulated with heparin, and centrifuged to separate plasma, which was stored at −80° C. for later use. Bortezomib and butyphthalide in the plasma were determined by protein precipitation-LC/MS/MS.

[7] = tested on: MM.1S
Description: (§1) This experiment includes a monotherapy group of Bortezomib, a combined therapy group (Bortezomib/NBP), and a monotherapy group of NBP. Different drug concentration gradients were set for each group.
(§2) Monotherapy group of Bortezomib: (1) MM.1S, Jeko-1, and HT29 cells: Bortezomib was 1.5× serially diluted from an initial concentration of 20 nM to 8 concentrations: 20, 13.33, 8.89, 5.93, 3.95, 2.63, 1.76, and 1.17 nM, respectively; (2) A549 cells: Bortezomib was 2×serially diluted from an initial concentration of 200 nM to 8 concentrations: 200, 100, 50, 25, 12.5, 6.25, 3.13, and 1.56 nM, respectively; and (3) DU145 cells: Bortezomib was 2× serially diluted from an initial concentration of 100 nM to 8 concentrations: 100, 50, 25, 12.5, 6.25, 3.13, 1.56, and 0.78 nM, respectively.
(§3) A certain number of conventionally cultured cells in logarithmic growth phase were inoculated in a 96-well plate with 100 μL per well. […] For adherent cells HT29, A549, and DU145, the above drugs were added 24 h after adherence. 3 replicate wells were set for each concentration of each drug, and blank wells (only culture medium was present, and no tumor cells were inoculated) and normal wells (a culture medium inoculated with tumor cells, drug concentration was 0) were set. The drugs functioned for 72 h, then MTT working solution (5 mg/mL) was added at 20 μL per well; after functioning at 37° C. for 4 h, the supernatant was removed, 150 μL of DMSO (analytically pure) was added; the mixture was fully mixed using a microplate oscillator, the plate was wiped clean, and the optical density (OD) at 550 nm was measured using a microplate reader.
(§4) The cell growth inhibition rate was computed using the following equation:
(§5) Inhibition rate (%)=(OD valuenormal well−OD valueadministration well)/(OD valuenormal well−OD valueblank well)×100%
(§6) Based on the inhibition rate of each concentration, the median inhibitory concentration IC50 of the drug was computed using SPSS19.0.

[8] = tested on: Jeko-1
Description: as §1, §2, §3, §4, §5, §6

[9] = tested on: HT29
Description: as §1, §2, §3, §4, §5, §6

[10] = tested on: A549
Description: as §1, §2, §3, §4, §5, §6

[11] = tested on: DU145
Description: as §1, §2, §3, §4, §5, §6

[12] = tested on: paclitaxel (albumin bound) chemotherapy-induced peripheral neuropathy; experiment: Paclitaxel (albumin bound) chemotherapy-induced peripheral neuropathy in rats, butylphthalide intragastric administration (Example 2); assay type: in vivo, SD (Sprague Dawley) rats; conditions: duloxetine hydrochloride 15 mg/kg qd, compared with the model group
Description: The model group was given vegetable oil at the same frequency and with the same administration method as NBP. The normal group was given normal saline at the same frequency and with the same administration method as ab-PTX, and was given vegetable oil at the same frequency and with the same administration method as NBP. […] (2) Thermal pain threshold: measurements were performed on days −1, 7, and 14. Method: IITC Life Science Electronic Von Frey Anesthesio meter was used and the intensity of the light source was adjusted to obtain a baseline of thermal pain threshold of about 3-6 s. […] The rats were placed in a plastic compartment on a glass plate, to make the planta centers of the rats be exposed to the light source. […] (3) Mechanical stimulus pain threshold: measurements were performed on days 0, 6, and 13. Method: the rats were placed in a plastic compartment on a wire mesh, left to stand still for 15 min, stimulated using a stimulation probe with a diameter of 0.4 mm of the IITC Life Science Electronic Von Frey Anesthesio meter at the planta centers of the rats by gradually increasing the force until reflexive withdrawal of the rats.

[13] = prevention of CIPN, guideline rating
[14] = prevention of CIPN, patients receiving cisplatin/oxaliplatin-based chemotherapy
[15] = prevention of CIPN, patients receiving paclitaxel/carboplatin chemotherapy
[16] = prevention of CIPN, patients receiving oxaliplatin treatment
[17] = Bor 0.5 mg/kg i.p., Pal 70 mg/kg, NBP 60 mg/kg, mean ± SD, n=6

For Vitamin E, the Efficacy [1, 13] is given as “Low” and the Safety [1, 13] is given as “Low”.

In the case of CC1=C(/C=C/C(C)=C/C=C/C(C)=C/C(=O)O)C(C)(C)CCC1 [All-trans retinoic acid], the Efficacy [1, 13] is given as “Low” and the Safety [1, 13] is given as “Moderate”.

For COCCOC(=O)C1=C(C)NC(C)=C(C(=O)OC(C)C)C1c1cccc([N+](=O)[O-])c1 (centres unmarked) [Nimodipine], the Safety [1, 13] is given as “Moderate”.

In the case of Nc1nnc(-c2cccc(Cl)c2Cl)c(N)n1 [Lamotrigine], the Efficacy [2] is given as “No evidence” and the Safety [2] is given as “Low”.

In the case of NC(=O)N1c2ccccc2C=Cc2ccccc21 [Carbamazepine], the Efficacy [1, 13] is listed as “Low” and the Safety [1, 13] is listed as “Low”.

For CC[C@]1(O)C[C@H]2CN(CCc3c([nH]c4ccccc34)[C@@](C(=O)OC)(c3cc4c(cc3OC)N(C=O)[C@H]3[C@@](O)(C(=O)OC)[C@H](OC(C)=O)[C@]5(CC)C=CCN6CC[C@]43[C@@H]65)C2)C1 [vincristine], the patients experiencing coasting ([3]; when the chemotherapy is stopped) is listed as 30%.

In the case of N[C@@H](CCC(=O)N[C@@H](CS)C(=O)NCC(=O)O)C(=O)O [Glutathione], the Efficacy [1, 14] is listed as “Low”, the Safety [1, 14] is listed as “Low” and the Efficacy [1, 15] is listed as “Low”. For the same compound, the Safety [1, 15] was “Low”.

In the case of Omega-3-fatty acid, the Efficacy [1, 16] is given as “Low” and the Safety [1, 16] is given as “Low”.

In the case of COc1ccc(C(CN(C)C)C2(O)CCCCC2)cc1 (centres unmarked) [Venlafaxine], the Efficacy [1, 13] is listed as “Low” and the Safety [1, 13] is listed as “Low”.

In the case of CNCC[C@H](Oc1cccc2ccccc12)c1cccs1 [Duloxetine], the Efficacy [2] is given as “Moderate” and the Safety [2] is given as “Low”.

For CC(=O)O[C@H](CC(=O)[O-])C[N+](C)(C)C [Acetyl L-carnitine], the Efficacy [1, 13] is listed as “Low”, the Safety [1, 13] is listed as “Low” and the Efficacy [2] is listed as “Low”. For the same compound, the Safety [2] was “Moderate”.

In the case of NCCCNCCSP(=O)(O)O [Amifostine], the Efficacy [1, 13] is given as “Low” and the Safety [1, 13] is given as “Moderate”.

For CC(=O)N[C@@H](CS)C(=O)O [Acetylcysteine], the Efficacy [1, 13] is given as “Low” and the Safety [1, 13] is given as “Low”.

For “rhuLIF: intervention for prevention of CIPN listed in the ASCO guideline table”, the Safety [1] is given as “Low” and the Efficacy [1, 13] is given as “No evidence”.

For NCC1(CC(=O)O)CCCCC1 [Gabapentin], the Efficacy [2] is given as “Low” and the Safety [2] is given as “Low”.

For Amitriptyline/nortriptyline, the Efficacy [2] is given as “Low”.

For CCN(CC)C(=S)S [Diethyldithio-carbamate], the Safety [1, 13] is given as “High”.

With CC(C)C[C@H](NC(=O)[C@H](Cc1ccccc1)NC(=O)c1cnccn1)B(O)O [Bortezomib] the IC50 [4] was 1 to 20 nM, the T/C % [5] was 98.0% and the TGI % [5] was 8.7%. For the same compound, the RTV [5] was 9.6, the TV [5] was 1124.8 mm^3 and the “Tumor weight inhibition rate” value [5] was 22.2%. The Tumor weight [5] was 1.282, the “body weights of the mice” value [5] was “no significant difference” and the “CI of Bortezomib” value [6, 17] was 30.2 ± 9.33 mL/min/kg. For the same compound, the “Vd of Bortezomib” value [6, 17] was 14.2 ± 3.2 L/kg, the “influence of Bortezomib on the pharmacokinetic behavior of NBP in mice” value ([6]; Bortezomib 0.5 mg/kg) was “substantially did not affect” and the AUC(0-t) ([6]; Nu/Nu, mouse, plasma, ip, Bor 0.5 mg/kg i.p., Pal 70 mg/kg, NBP 60 mg/kg, mean ± SD, n=6, read-out: AUC0-t of Bortezomib in plasma) was 290 ± 104 ng·h/mL. For the same compound, the MRT last ([6]; Nu/Nu, mouse, plasma, ip, Bor 0.5 mg/kg i.p., Pal 70 mg/kg, NBP 60 mg/kg, mean ± SD, n=6, read-out: MRT0-t of Bortezomib) was 5.9 ± 0.8 h, the half-life ([6]; Nu/Nu, mouse, plasma, ip, Bor 0.5 mg/kg i.p., Pal 70 mg/kg, NBP 60 mg/kg, mean ± SD, n=6, read-out: t1/2 of Bortezomib in plasma (converted)) was 56.6 ± 1.16 h and the Cmax ([6]; Nu/Nu, mouse, plasma, ip, after last Bortezomib dose, Bor 0.5 mg/kg i.p., Pal 70 mg/kg, NBP 60 mg/kg, mean ± SD, n=6, read-out: Cmax of Bortezomib in plasma) was 113 ± 8 ng/mL. For the same compound, the IC50 [7] was 2.55 nM and 2.94 nM and 2.99 nM and 2.83 nM, the IC50 [8] was 4.83 nM and 3.51 nM and 4.47 nM and 4.27 nM and the IC50 [9] was 4.43 nM and 4.97 nM and 5.65 nM and 5.02 nM. For the same compound, the IC50 [10] was 11.8 nM and 13.3 nM and 10.6 nM and 11.9 nM, the IC50 [11] was 12.8 nM and 11.9 nM and 17.1 nM and 13.9 nM and the “patients still having clinically significant neuropathy” value ([3]; 2-3 months after treatment) was 60-85%. For the same compound, the “additional patients with moderate to severe neurotoxicity” value ([3]; human, in vivo) was about 30% and the “patients with severe painful sensory neuropathy” value ([3]; human, in vivo) was 50%.

For N[C@@H](CCC(=O)O)C(=O)O [Glutamate], the Efficacy [1, 13] is given as “Low” and the Safety [1, 13] is given as “Low”.

For CNCC[C@H](Oc1cccc2ccccc12)c1cccs1 [duloxetine hydrochloride, Duloxetine hydrochloride], the “body weights of the rats” value ([12]; NBP 3, 10 and 30 mg/kg bid, intragastric, throughout administration) was “significantly increase”, the mechanical pain threshold ([12]; day 13, NBP 10 and 30 mg/kg bid, P<0.05) was “significantly decreased” and the thermal pain threshold ([12]; day 14, NBP 3, 10 and 30 mg/kg bid, P<0.05) was “significantly decreased”.

In the case of CN(C)CCC=C1c2ccccc2CCc2ccccc21 [Amitriptyline], the Efficacy [1, 13] is listed as “No evidence” and the Safety [1, 13] is listed as “Moderate”.

For CC(=O)c1c(C)c2cnc(Nc3ccc(N4CCNCC4)cn3)nc2n(C2CCCC2)c1=O [Palbociclib], the T/C % [5] was 44.4%, the TGI % [5] was 56.3% and the RTV [5] was 4.3. The TV [5] was 605.4 mm^3, the “Tumor weight inhibition rate” value [5] was 66.6% and the Tumor weight [5] was 0.550. The “body weights of the mice” value [5] was “no significant difference”.
